Experimental data as given in PubChem BioAssay AID1919008 (Molecular Pharmacology Branch, DTP, NCI, 2023).

System: DMS-114 complex spheroids with HUVEC/MSC, growth % test/control
Test: Anticancer human tumor DMS-114 cell line growth inhibition [AhR];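 further: spheroids exposed to agents for 7 days before readout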;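 on viability, T/C: 100% = DMSO vehicle control wells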
Details: for IC50: curve of first compound; for viability, T/C: stronger effect = lower value
Excerpt: Multicellular complex tumor spheroid response to aryl hydrocarbon receptor antagonists in combination with a variety of drugs and investigational agents in selected tumor cell lines
The current study was undertaken to assess response to aryl hydrocarbon receptor antagonists in combination with standard-of-care drugs and investigational agents in solid tumor complex spheroid models. Complex spheroids include a stromal component modeled by human endothelial cells (HUVEC) and fibroblasts modeled by human mesenchymal stem cells (MSCs). The concentration ranges selected for each drug and investigational agent were based upon clinically achievable concentrations if the clinical Cmax of the agent was known.
Compounds. The drugs and investigational agents: BAY 2416964 (NSC825713), GNF351 (NSC835774), CH-223191 (NSC835775), CPI-455 (NSC825282), aza-TdCyd (NSC777586), decitabine (NSC127716), belinostat (NSC758774), entinostat (NSC756642), pevonedistat (NSC761192), tazemetostat (NSC777109), talazoparib (NSC765396), olaparib (NSC753686), selinexor (NSC780203), nedisertib (M3814, NSC802822), bortezomib (NSC756655), venetoclax (NSC766270), doxorubicin (NSC123127), elimusertib (BAY189344, NSC800525), ceralasertib (AZD6738, NSC777638), TAK-243 (NSC785004), alisertib (NSC759677), etoposide (NSC141540), topotecan (NSC609699), eribulin (NSC707389), gemcitabine (NSC613327), carboplatin (NSC241240), cisplatin (NSC119875), and SN-38 (NSC673596) were obtained from the National Cancer Institute (NCI) Developmental Therapeutics Program Chemical Repository (32). The FDA-approved anticancer drug set is available from the Developmental Therapeutics Program at https://dtp.cancer.gov/organization/dscb/obtaining/available plates.htm. […] The stock solutions were prepared in dimethyl sulfoxide (DMSO, Sigma-Aldrich, St. Louis, MO, cat. D2650), except for the platinum compounds which were prepared in saline (Quality Biological, Gaithersburg, MD, cat. 114-055-101), at 800-fold the tested concentration and stored at -70 degrees C prior to their use. All drugs and investigational agents were tested over a range starting from a high concentration at or near the clinical Cmax and decreasing in half-log increments. If the clinical Cmax for an agent had not been determined, the highest concentration tested was 10 microM (Table 1).
Cell Culture. All cells were maintained in an incubator at 37 degrees C and 5% CO2 with 95% humidity. The PDC lines were cultured according to standard operating procedures established by the NCI PDMR (https://pdmr.cancer.gov). Briefly, all PDCs were thawed and cultured in Matrigel-coated flasks prepared with a working solution of 1X Ham's F-12 nutrient mix, without supplementation (Invitrogen, Waltham, MA, cat. 11765054), 100 U/mL penicillin-streptomycin (Invitrogen, cat. 15140122), and 2.5% Matrigel (Corning Inc., Corning, NY, cat. 354248) for the first three passages. All PDCs were cultured in complete DMEM/F-12 media containing advanced DMEM/F-12 (Invitrogen, cat. 12634028), 4.9% defined fetal bovine serum, heat inactivated (HyClone Laboratories Inc., Logan, UT, cat. SH30070.03HI), 389 ng/mL hydrocortisone (Sigma-Aldrich, cat. H4001), 9.7 ng/mL human EGF recombinant protein (Invitrogen, cat. PHG0313), 23.4 microg/mL adenine (Sigma-Aldrich, cat. A2786), 97.3 U/mL penicillin-streptomycin (Invitrogen, cat. 15140122), 1.9 mM L-glutamine (Invitrogen, cat. 25030081), and 9.7 microM Y-27632 dihydrochloride (Tocris Bioscience, Bristol, United Kingdom, cat. 1254). The PDCs were cultured in complete DMEM/F12 media without 10 microM Y-27632 dihydrochloride for at least two passages prior to the screen. The established cell lines NCI-H1341 and […] were cultured in DMEM/F-12, HEPES (Invitrogen, cat. 11330032), 5% defined fetal bovine serum (HyClone Laboratories Inc., cat. SH30070.03), ITS premix universal culture supplement [insulin (5 microg/mL), transferrin (5 microg/mL), and selenious acid (5 ng/mL)] […]

[1] = second compound 0.1 µM, first compound 0.0316 µM
[2] = second compound 0.1 µM, first compound 0.1 µM
[3] = second compound 0.1 µM, first compound 0.316 µM
[4] = second compound 0.1 µM, first compound 1 µM
[5] = second compound 0.1 µM, first compound 3.16 µM
[6] = second compound 0.1 µM, first compound 10 µM
[7] = second compound 0.316 µM, first compound 0.0316 µM
[8] = second compound 0.316 µM, first compound 0.1 µM
[9] = second compound 0.316 µM, first compound 0.316 µM
[10] = second compound 0.316 µM, first compound 1 µM
[11] = second compound 0.316 µM, first compound 3.16 µM
[12] = second compound 0.316 µM, first compound 10 µM
[13] = second compound 1 µM, first compound 0.0316 µM
[14] = second compound 1 µM, first compound 0.1 µM
[15] = second compound 1 µM, first compound 0.316 µM
[16] = second compound 1 µM, first compound 1 µM
[17] = second compound 1 µM, first compound 3.16 µM
[18] = second compound 1 µM, first compound 10 µM
[19] = second compound 3.16 µM, first compound 0.0316 µM
[20] = second compound 3.16 µM, first compound 0.1 µM
[21] = second compound 3.16 µM, first compound 0.316 µM
[22] = second compound 3.16 µM, first compound 1 µM
[23] = second compound 3.16 µM, first compound 3.16 µM
[24] = second compound 3.16 µM, first compound 10 µM
[25] = second compound 10 µM, first compound 0.0316 µM
[26] = second compound 10 µM, first compound 0.1 µM
[27] = second compound 10 µM, first compound 0.316 µM
[28] = second compound 10 µM, first compound 1 µM
[29] = second compound 10 µM, first compound 3.16 µM
[30] = second compound 10 µM, first compound 10 µM

Row | SMILES | IC50 (second compound 0.1 µM) [nM] | IC50 (second compound 0.316 µM) [nM] | IC50 (second compound 1 µM) [nM] | IC50 (second compound 3.16 µM) [nM] | IC50 (second compound 10 µM) [nM] | viability, T/C [1] [%] | viability, T/C [2] [%] | viability, T/C [3] [%] | viability, T/C [4] [%] | viability, T/C [7] [%] | viability, T/C [8] [%] | viability, T/C [9] [%] | viability, T/C [10] [%] | viability, T/C [13] [%] | viability, T/C [14] [%] | viability, T/C [15] [%] | viability, T/C [16] [%] | viability, T/C [19] [%] | viability, T/C [20] [%] | viability, T/C [21] [%] | further results
1 | COc1cc(C2c3cc4c(cc3C(OC3OC5COC(C)OC5C(O)C3O)C3COC(=O)C23)OCO4)cc(OC)c1O (stereo not given) + CC(CO)NC(=O)c1cc(-c2ccc(Cl)cc2)nn(-c2cnn(C)c2)c1=O | 572 | 469 | 448 | 431 | 489 | 87.4 | 88.4 | 64.3 | 34.2 | 95.9 | 88.3 | 55 | 34.3 | 97.7 | 89.9 | 56.3 | 31.4 | 90.4 | 94.8 | 52.8 | viability, T/C [5]: 25.8%; viability, T/C [6]: 13.2%; viability, T/C [11]: 25.8%; viability, T/C [12]: 13.4%; viability, T/C [17]: 22.7%; viability, T/C [18]: 14%; viability, T/C [22]: 32.9%; viability, T/C [23]: 23.6%; viability, T/C [24]: 12%; viability, T/C [25]: 94.4%; viability, T/C [26]: 97.7%; viability, T/C [27]: 58%; viability, T/C [28]: 32.9%; viability, T/C [29]: 22.2%; viability, T/C [30]: 12.7%
2 | COc1cccc2c1C(=O)c1c(O)c3c(c(O)c1C2=O)CC(O)(C(=O)CO)CC3OC1CC(N)C(O)C(C)O1 (stereo not given) + CC(CO)NC(=O)c1cc(-c2ccc(Cl)cc2)nn(-c2cnn(C)c2)c1=O | < 31.6 | 34 | < 31.6 | < 31.6 | < 31.6 | 40.4 | 34.1 | 8.85 | 1.01 | 51.2 | 31.4 | 8.15 | 0.97 | 48.8 | 33.5 | 10.3 | 0.95 | 43.9 | 35.4 | 9.19 | viability, T/C [5]: 0.27%; viability, T/C [6]: 0.6%; viability, T/C [11]: 0.59%; viability, T/C [12]: 0.6%; viability, T/C [17]: 0.33%; viability, T/C [18]: 0.54%; viability, T/C [22]: 0.92%; viability, T/C [23]: 1.14%; viability, T/C [24]: 0.73%; viability, T/C [25]: 43.4%; viability, T/C [26]: 27.3%; viability, T/C [27]: 9.28%; viability, T/C [28]: 0.38%; viability, T/C [29]: 0.32%; viability, T/C [30]: 0.4%
3 | Nc1ncn(C2CC(O)C(CO)O2)c(=O)n1 (stereo not given) + CC(CO)NC(=O)c1cc(-c2ccc(Cl)cc2)nn(-c2cnn(C)c2)c1=O | > 1000 | > 1000 | > 1000 | > 1000 | > 1000 | 97.8 | 96.5 | 85 | 61.6 | 93.9 | 80 | 79.8 | 59.8 | 90.3 | 93.8 | 83.3 | 72.3 | 80.1 | 94.5 | 85.1 | viability, T/C (second compound 0.1 µM, first compound 0.00316 µM): 102%; viability, T/C (second compound 0.1 µM, first compound 0.01 µM): 95.6%; viability, T/C (second compound 0.316 µM, first compound 0.00316 µM): 122%; viability, T/C (second compound 0.316 µM, first compound 0.01 µM): 101%; viability, T/C (second compound 1 µM, first compound 0.00316 µM): 91.3%; viability, T/C (second compound 1 µM, first compound 0.01 µM): 105%; viability, T/C (second compound 3.16 µM, first compound 0.00316 µM): 109%; viability, T/C (second compound 3.16 µM, first compound 0.01 µM): 104%; viability, T/C [22]: 70.7%; viability, T/C (second compound 10 µM, first compound 0.00316 µM): 101%; viability, T/C (second compound 10 µM, first compound 0.01 µM): 99.7%; viability, T/C [25]: 93.4%; viability, T/C [26]: 98%; viability, T/C [27]: 91.8%; viability, T/C [28]: 76.5%
